According to PMC12654037, “Norditerpene Natural Products from Subterranean Fungi with Anti-Parasitic Activity” (Microorganisms, 2025):

Tests used:
C. parvum = C. parvum growth inhibition assay (Cp-NLuc-infected HCT-8 cells); format: cell-based, Cryptosporidium parvum; conditions: for EC50: Cryptosporidium parvum, HCT-8, intracellular nanoluciferase-expressing C. parvum in vitro, Figure 1 table, read-out: EC50 (μM), C. parvum; for parasite inhibition in pilot screen: CpNLuc-infected HCT-8 cells, initial dose 5 µg/mL
Protocol: C. parvum growth inhibition assays: The in vitro growth inhibition assay of C. parvum has been previously described. Briefly, clear-bottom, white-sided 96 well plates were seeded with HCT-8 cells. Once the cells reached between 50% and 75% confluency, they were infected with Cp-NLuc oocysts (10,000/well) in complete media containing 0.6% taurocholate. At 24 h post-infection (hpi), the infected cells were treated with compounds at various concentrations. DMSO was used as a vehicle control in parallel. Parasite growth was determined at 72 hpi by measuring relative luminescence units (RLUs) using Promega Nano-Glo substrate (Promega, Madison, WI, USA) and a SpectraMax® L Microplate Reader (Molecular Devices, San Jose, CA, USA). The percent inhibition of parasite growth was calculated as [(RLUDMSO − RLUcompound)/RLUDMSO] × 100.

HCT-8 cells = assay: HCT-8 cytotoxicity assay; format: cell-based
Protocol: (§1) HCT-8 and HFF cytotoxicity assays: Cytotoxicity of the compounds was determined against both confluent (the conditions of the infection assays) and growing HCT-8 and HFF host cells, as previously described. Cells were seeded into white-sided, clear-bottom 96-well plates and grown to either 40% or 100% confluency. Compounds were added to cells at various concentrations up to 100 µM in a final DMSO concentration of 0.5%. DMSO was run in parallel as a vehicle control. After 48 h, the viability of the cells was determined by either quantification of cellular ATP (Cell-Titer Glo cell viability assay; Promega, Madison WI, USA) or by MTT assay. Viability was determined 24 h after compound addition to HFF cells or 48 h after compound addition to HCT-8 cells or HepG2 cells. The percent cell growth was then calculated with the following formula: % Cell Growth = [RLUcompound/RLUDMSO] × 100. Samples were run in triplicate with two to three biological replicates.

HFF cells = assay: HFF cytotoxicity assay; format: cell-based; conditions: confluent
Protocol: as §1

HepG2 human hepatocytes = assay: HepG2 cytotoxicity assay (MTS); format: cell-based; conditions: 48 h, mean +/- SD
Protocol: HepG2 cytotoxicity assay: Mammalian cell cytotoxicity was assessed in HepG2 human hepatocytes using an MTS 3-(4,5-dimethylthiazol-2-yl)-5-(3-carboxymethoxyphenyl)-2-(4-sulfophenyl)-2H-tetrazolium)-based cytotoxicity assay. For cytotoxicity testing, ∼2250 cells were seeded into each well of a 384-well microtiter plate and incubated for 24 h. Serial dilutions of the compounds were added in triplicate starting at 25 μM. Cells were further incubated for an additional 48 h at 37 °C in an atmosphere containing 5% CO2. Zero-growth control wells were incubated with 5% Triton X-100 for 5 min prior to MTS addition. Following the addition of MTS to all wells, the plates were incubated for an additional 4 h under the same environmental conditions before taking absorbance measurements. Absorbance values were recorded at 490 nm using a Synergy Neo2 multimode reader (BioTek), and values were normalized based on Triton X-100-lysed and no treatment controls. Samples were run in triplicate in each assay, and the experiments were repeated three times.

HuF fibroblast cell line = conditions: sub-confluent; ref Rusman et al. 2020 [25]; cited from earlier work
P. falciparum line Dd2 = assay: Plasmodium falciparum growth inhibition assay (SYBR Green I), Dd2; conditions: for EC50: Plasmodium falciparum, DD2, 72 h, read-out: EC50 Dd2 (M)
Protocol: (§2) Plasmodium falciparum growth inhibition assay: Antiplasmodial EC50 results were determined using a fluorescence-based SYBR Green I assay performed using asynchronous cultures [30, 35]. […] Plates were subsequently frozen at −80 °C to facilitate lysis. […] Relative fluorescence units (RFUs) were normalized based on chloroquine-treated and no treatment controls. Serial dilutions of compounds were prepared in RPMI with final assay conditions of ≤0.2% DMSO. Each assay was conducted in triplicate with three biological replicates.

P. falciparum 3D7 = assay: Plasmodium falciparum growth inhibition assay (SYBR Green I), 3D7; conditions: 3D7, 72 h, read-out: EC50 3D7(M)
Protocol: as §2

C. parvum sporozoites = assay: C. parvum invasion inhibition assay; format: cell-based, Cryptosporidium parvum; conditions: 100 nM, 3 h infection
Protocol: C. parvum excystation and invasion assays: Oocyst excystation rates in the presence of compounds were determined as previously described. The C. parvum invasion inhibition assays were conducted in two formats. In the first format, described previously, HCT-8 cells were seeded on glass slides (CELLTREAT Scientific Product, Pepperell, MA, USA) and allowed to grow to confluence. Oidiolactone A was added to the cells for one hour. TrtE and DMSO were run in parallel as positive and negative controls, respectively. The cell monolayers were then infected with 1.2 × 10^6 wild-type C. parvum oocysts. After 3 h of incubation at 37 °C, the slides were washed five times with 111 mM D-galactose, fixed with 4% paraformaldehyde, and permeabilized with 0.25% Triton-X. C. parvum sporozoites were detected with rabbit anti-gp40 [39] and Alexa Fluor 594 goat anti-rabbit antibodies. The HCT-8 cell nuclei were stained with 0.09 mM Hoechst. Slides were coded to enable unbiased counting, and sporozoites from at least 10 randomly selected fields were counted in each sample at 100× magnification (Zeiss® Axioscope 5). The percentage of invaded parasites was determined using the following equation: % Invaded parasites = [parasitescompound/parasitesDMSO] × 100. This experiment was run in duplicate with two biological replicates. […]

| SMILES | EC50 (C. parvum) | TC50 HCT-8 (confluent) (HCT-8 cells) | TC50 HCT-8 (sub-confluent) (HCT-8 cells) | TC50 HFF (confluent) (HFF cells) | TC50 HepG2 (HepG2 human hepatocytes) | TC50 HuF (sub-confluent) (HuF fibroblast cell line) | SI: selectivity index=EC50 HepG2/ EC50 compound (P. falciparum line Dd2) | EC50 (P. falciparum line Dd2) | EC50 (P. falciparum 3D7) | parasite inhibition in pilot screen (C. parvum) | effect on parasite invasion (positive control) (C. parvum sporozoites) |
| --- | --- | --- | --- | --- | --- | --- | --- | --- | --- | --- | --- |
| C[C@@]12CCC[C@]3(C)C4=CC(=O)OC[C@]45O[C@@H]5[C@@H](OC1=O)[C@@H]23 [compound 2, oidiolactone C] | 1.8 µM | > 30 µM | 1.35 ± 0.2 µM | > 30 µM | 17.1 ± 0.821 µM | > 30 µM | 7 | 2.49e-06 ± 1.98e-07 M | 2.78e-06 ± 3.97e-07 M |  |  |
| C[C@@]12CCC[C@]3(C)C4=CC(=O)O[C@@H](O)[C@]45O[C@@H]5[C@@H](OC1=O)[C@@H]23 [compound 3, oidiolactone D] |  |  |  |  | > 25 µM | > 30 µM |  | > 5e-06 M | > 5e-06 M |  |  |
| C[C@]12C(=O)O[C@@H]3[C@H]4O[C@@]45C(=CC(=O)O[C@H]5O)[C@@](C)(CC[C@H]1O)[C@@H]32 [compound 4, oidiolactone G] |  |  |  |  | > 25 µM | > 30 µM |  | > 5e-06 M | > 5e-06 M | eliminates activity |  |
| COC(=O)/C=C1/[C@]2(C(OC)OC)O[C@@H]2[C@H]2OC(=O)[C@@]3(C)CCC[C@@]1(C)[C@@H]23 [compound 5, oidiolactone H] |  |  |  |  |  | > 30 µM |  |  |  | abolishes inhibitory activity |  |
| COC(=O)/C=C1/[C@]2(C=O)O[C@@H]2[C@H]2OC(=O)[C@@]3(C)CCC[C@@]1(C)[C@@H]23 [compound 6, oidiolactone I] | 7.8 µM | > 30 µM | 4.8 ± 0.7 µM | > 30 µM | > 25 µM | > 30 µM |  | > 4.99e-06 M | 3.65e-06 ± 5.96e-07 M |  |  |
| CO[C@H]1OC(=O)C=C2C1=C[C@H]1OC(=O)[C@@]3(C)[C@H](O)CC[C@@]2(C)[C@@H]13 [compound 8, oidiolactone J] | 7.8 µM | > 30 µM | > 30 µM | > 30 µM | > 25 µM | > 30 µM |  | > 5e-06 M | > 5e-06 M |  |  |
| C[C@]12C(=O)O[C@@H]3C=C4C(=CC(=O)O[C@@H]4O)[C@@](C)(CC[C@H]1O)[C@@H]32 [compound 9, oidiolactone K] |  |  |  |  | > 25 µM | > 30 µM |  | > 5e-06 M | > 5e-06 M |  |  |
| C[C@@]12CCC[C@]3(C)C4=CC(=O)O[C@H](O)C4=C[C@@H](OC1=O)[C@@H]23 [compound 10, yukonin] | 1.09 µM | > 30 µM | 2.5 ± 0.3 µM | > 30 µM |  |  |  |  |  |  |  |
| C[C@]1(C(=O)O)CCC[C@]2(C)C3=CC(=O)OCC3=CC[C@@H]12 [compound 11, oidiodendronic acid] | 9.1 µM | > 30 µM | 19.7 ± 4.8 µM | > 30 µM | > 25 µM | > 30 µM |  | > 5e-06 M | > 5e-06 M |  |  |
| C[C@@]12CCC[C@]3(C)c4cc(=O)occ4[C@H](O)[C@@H](OC1=O)[C@@H]23 [compound 12, oidiolactone L] |  |  |  |  | > 25 µM | > 30 µM |  | > 5e-06 M | > 5e-06 M | inactive |  |
| C[C@]12CCC[C@](C)(C(=O)O)[C@@H]1C=C[C@]1(O)COC(=O)C[C@H]21 [compound 13, oidiolactone E] |  |  |  |  | > 25 µM |  |  | > 5e-06 M | > 5e-06 M |  |  |
| C=C1C(O)C[C@@H]2[C@](C)(CCC[C@]2(C)C(=O)O)[C@H]1CC(=O)O (stereo partly drawn) [compound 14, LL-Z1271β] |  |  |  |  | > 25 µM | > 30 µM |  | > 5e-06 M | > 5e-06 M |  |  |
| C[C@@H]1CCC2CC(=O)C[C@@H](O)CC/C=C/C=C\CC[C@H](C)OC(=O)[C@@H]3O[B-]45O[C@@H](C(=O)O[C@@H](C)CC/C=C\C=C\CC[C@H](O)CC(=O)CC6CC[C@@H](C)[C@]3(O6)O4)[C@@]1(O2)O5 [tartrolon E, reference compound] |  |  |  |  |  |  |  |  |  |  | completely inhibited parasite invasion |
